Source: article PMC4774911, “Biochemical Screening of Five Protein Kinases from Plasmodium falciparum against 14,000 Cell-Active Compounds” (PLoS ONE, 2016)
Several values for one entry are separate records, joined by “and”; a condition that tells them apart may be missing. Identical values can stand only once. Like-named read-outs stand apart in the source and are kept apart here.

Columns and labels:
MAPK9 = MAPK9 (Homo sapiens, UniProt P45984); test: biochemical
DYRK1A = DYRK1A (Homo sapiens, UniProt Q13627); test: biochemical
IRAK4 = target: T1, IRAK4 (Homo sapiens, UniProt Q9NWZ3); test: biochemical
T1 sequence (Q9NWZ3 1-460): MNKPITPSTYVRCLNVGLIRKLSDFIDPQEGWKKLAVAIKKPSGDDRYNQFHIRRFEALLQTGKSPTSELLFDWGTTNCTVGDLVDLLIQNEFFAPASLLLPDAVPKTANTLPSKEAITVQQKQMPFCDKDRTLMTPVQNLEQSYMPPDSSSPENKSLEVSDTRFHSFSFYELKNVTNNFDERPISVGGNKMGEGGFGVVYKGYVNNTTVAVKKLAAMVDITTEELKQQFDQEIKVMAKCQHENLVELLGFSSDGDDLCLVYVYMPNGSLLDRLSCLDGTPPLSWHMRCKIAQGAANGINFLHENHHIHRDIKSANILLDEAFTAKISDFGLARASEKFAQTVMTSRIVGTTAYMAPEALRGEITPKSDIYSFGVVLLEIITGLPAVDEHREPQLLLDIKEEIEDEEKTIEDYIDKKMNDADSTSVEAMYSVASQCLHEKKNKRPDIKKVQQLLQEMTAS

MASTL = target: T2, MASTL (Homo sapiens, UniProt Q96GX5); test: biochemical
T2 sequence (Q96GX5 1-879): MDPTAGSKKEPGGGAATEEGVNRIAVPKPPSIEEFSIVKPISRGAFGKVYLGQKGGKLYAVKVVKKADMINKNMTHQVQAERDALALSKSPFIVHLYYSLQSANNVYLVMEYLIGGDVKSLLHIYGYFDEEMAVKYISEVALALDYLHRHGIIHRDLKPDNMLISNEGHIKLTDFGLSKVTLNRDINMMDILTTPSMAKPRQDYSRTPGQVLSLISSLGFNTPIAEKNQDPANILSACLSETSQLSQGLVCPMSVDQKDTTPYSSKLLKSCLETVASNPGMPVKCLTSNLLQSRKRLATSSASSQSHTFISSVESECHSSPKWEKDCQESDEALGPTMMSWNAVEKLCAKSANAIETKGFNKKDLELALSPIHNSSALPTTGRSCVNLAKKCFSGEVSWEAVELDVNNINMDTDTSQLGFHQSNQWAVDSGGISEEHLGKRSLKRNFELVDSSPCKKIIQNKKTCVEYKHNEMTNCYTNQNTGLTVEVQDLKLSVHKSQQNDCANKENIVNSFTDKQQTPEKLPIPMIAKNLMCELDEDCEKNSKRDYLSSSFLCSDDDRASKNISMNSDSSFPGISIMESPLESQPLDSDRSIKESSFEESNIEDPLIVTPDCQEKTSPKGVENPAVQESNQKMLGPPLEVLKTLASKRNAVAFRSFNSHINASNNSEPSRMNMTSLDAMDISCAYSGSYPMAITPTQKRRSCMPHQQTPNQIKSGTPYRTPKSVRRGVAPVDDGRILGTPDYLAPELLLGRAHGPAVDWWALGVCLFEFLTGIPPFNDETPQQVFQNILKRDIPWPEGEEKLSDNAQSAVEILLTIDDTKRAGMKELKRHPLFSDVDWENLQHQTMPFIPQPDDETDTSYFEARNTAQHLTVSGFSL

PHKG2 = target: T3, PHKG2 (Homo sapiens, UniProt P15735); test: biochemical
T3 sequence (P15735 1-406): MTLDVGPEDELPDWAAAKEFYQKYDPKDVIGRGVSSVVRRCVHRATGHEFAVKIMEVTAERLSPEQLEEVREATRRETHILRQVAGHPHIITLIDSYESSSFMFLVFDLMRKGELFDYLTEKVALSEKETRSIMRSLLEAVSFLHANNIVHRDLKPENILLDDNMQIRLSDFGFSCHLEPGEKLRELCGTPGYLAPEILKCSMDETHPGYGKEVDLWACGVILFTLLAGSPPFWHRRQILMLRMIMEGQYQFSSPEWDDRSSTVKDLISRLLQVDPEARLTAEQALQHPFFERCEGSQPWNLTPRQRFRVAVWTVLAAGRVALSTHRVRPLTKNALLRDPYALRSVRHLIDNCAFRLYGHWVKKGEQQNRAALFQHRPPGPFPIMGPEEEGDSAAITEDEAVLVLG

LOC100128443 = conditions: human
MAP4K5 = MAP4K5 (Homo sapiens, UniProt Q9Y4K4); test: biochemical; set-up: species or system K562 (extract); replicate k of n = 2 (each experiment ID is one independent experiment; two experiment IDs per compound); conditions: read-out: KDapp
MAP4K5, sequence (Q9Y4K4 whole entry): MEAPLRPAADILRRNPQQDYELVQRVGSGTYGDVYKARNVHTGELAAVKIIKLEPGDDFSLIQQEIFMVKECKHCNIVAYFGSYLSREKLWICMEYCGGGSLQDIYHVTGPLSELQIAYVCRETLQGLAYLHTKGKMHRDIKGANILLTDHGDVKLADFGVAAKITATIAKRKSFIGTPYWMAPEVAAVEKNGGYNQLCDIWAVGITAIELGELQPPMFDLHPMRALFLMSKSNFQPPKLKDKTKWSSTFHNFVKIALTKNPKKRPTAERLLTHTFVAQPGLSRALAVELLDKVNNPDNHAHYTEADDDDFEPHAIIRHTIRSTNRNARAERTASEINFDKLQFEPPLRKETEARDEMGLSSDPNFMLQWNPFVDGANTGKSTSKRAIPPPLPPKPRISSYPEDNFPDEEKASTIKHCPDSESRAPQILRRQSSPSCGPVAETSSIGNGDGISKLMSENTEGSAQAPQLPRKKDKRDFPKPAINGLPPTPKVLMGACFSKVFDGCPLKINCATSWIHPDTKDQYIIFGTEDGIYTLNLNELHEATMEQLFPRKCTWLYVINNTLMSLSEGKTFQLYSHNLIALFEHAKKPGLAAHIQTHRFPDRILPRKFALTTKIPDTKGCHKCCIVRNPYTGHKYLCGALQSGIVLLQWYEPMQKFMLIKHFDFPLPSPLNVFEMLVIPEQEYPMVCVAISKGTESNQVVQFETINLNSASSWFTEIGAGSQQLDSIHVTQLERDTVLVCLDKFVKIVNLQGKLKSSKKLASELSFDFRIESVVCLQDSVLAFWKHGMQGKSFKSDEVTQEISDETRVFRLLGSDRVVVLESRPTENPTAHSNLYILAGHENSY

P. falciparum 3D7 cells = conditions: cited from earlier work
PTK2 = PTK2 (Homo sapiens, UniProt Q05397); test: biochemical; set-up: endogenous in cells; host or cells: K562 cell extract; species or system K562 (extract); replicate k of n = 2 (each experiment ID is one independent experiment; two experiment IDs per compound); conditions: read-out: KDapp
PTK2, sequence (Q05397 whole entry): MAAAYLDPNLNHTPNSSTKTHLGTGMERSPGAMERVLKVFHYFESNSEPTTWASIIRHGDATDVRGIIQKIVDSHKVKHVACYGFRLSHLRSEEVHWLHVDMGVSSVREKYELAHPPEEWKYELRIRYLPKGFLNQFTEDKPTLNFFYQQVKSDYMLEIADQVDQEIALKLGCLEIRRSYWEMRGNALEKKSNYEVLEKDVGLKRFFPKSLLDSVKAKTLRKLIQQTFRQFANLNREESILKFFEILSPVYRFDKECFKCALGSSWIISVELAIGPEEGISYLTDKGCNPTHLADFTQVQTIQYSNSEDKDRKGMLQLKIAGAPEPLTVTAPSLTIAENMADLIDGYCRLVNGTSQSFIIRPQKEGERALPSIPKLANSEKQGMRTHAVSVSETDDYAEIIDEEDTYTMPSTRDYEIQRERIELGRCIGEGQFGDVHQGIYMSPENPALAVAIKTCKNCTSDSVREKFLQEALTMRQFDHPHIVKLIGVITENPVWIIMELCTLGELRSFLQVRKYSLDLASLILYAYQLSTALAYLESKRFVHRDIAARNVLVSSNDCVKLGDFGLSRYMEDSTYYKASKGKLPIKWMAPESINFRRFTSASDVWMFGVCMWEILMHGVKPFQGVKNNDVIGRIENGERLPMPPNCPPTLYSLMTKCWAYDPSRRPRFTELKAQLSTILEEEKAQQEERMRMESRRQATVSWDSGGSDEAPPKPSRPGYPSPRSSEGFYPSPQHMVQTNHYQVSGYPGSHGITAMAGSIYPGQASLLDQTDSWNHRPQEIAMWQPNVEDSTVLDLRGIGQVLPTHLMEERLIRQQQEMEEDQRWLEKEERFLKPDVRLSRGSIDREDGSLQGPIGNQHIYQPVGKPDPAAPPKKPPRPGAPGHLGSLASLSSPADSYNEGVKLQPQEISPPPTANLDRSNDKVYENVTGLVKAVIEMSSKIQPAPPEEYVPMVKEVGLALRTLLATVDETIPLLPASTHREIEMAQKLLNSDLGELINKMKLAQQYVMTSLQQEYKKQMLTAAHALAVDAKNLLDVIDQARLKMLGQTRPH

[1] = P. falciparum 3D7, downloaded from ChEMBL ref F.J. Gamo et al., Nature 2010
[2] = 3D7, downloaded from ChEMBL, ref F.J. Gamo et al., Nature 2010

MAPK9, sequence (P45984 whole entry): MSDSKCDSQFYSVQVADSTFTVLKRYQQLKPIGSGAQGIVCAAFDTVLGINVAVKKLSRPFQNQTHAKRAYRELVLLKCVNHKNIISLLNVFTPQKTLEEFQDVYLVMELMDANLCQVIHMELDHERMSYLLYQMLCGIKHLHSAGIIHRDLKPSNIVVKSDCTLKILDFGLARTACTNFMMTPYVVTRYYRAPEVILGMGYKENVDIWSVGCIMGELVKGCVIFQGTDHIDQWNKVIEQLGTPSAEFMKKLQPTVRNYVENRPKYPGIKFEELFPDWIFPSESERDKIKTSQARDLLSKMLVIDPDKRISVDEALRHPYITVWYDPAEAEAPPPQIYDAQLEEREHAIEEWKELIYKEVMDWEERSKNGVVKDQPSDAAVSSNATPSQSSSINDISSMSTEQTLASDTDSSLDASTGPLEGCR

Structure (SMILES) | IC50 (MAPK9) | IC50 (DYRK1A) | IC50 (IRAK4) [nM] | IC50 (MASTL) | IC50 (PHKG2) [nM] | IC50 (LOC100128443) [nM] | Kd (MAP4K5) | PCT_IHB_3D7 (P. falciparum 3D7 cells; P. falciparum 3D7, ref ChEMBL) | pXC50_3D7 (P. falciparum 3D7 cells; P. falciparum 3D7, ref ChEMBL) | Kd (PTK2) | PCT_IHB_3D7 (P. falciparum 3D7 cells; [1]) | pXC50_3D7 (P. falciparum 3D7 cells; [1]) | PCT_IHB_3D7 (P. falciparum 3D7 cells; [2]) [%] | pXC50_3D7 (P. falciparum 3D7 cells; [2])
CN(C)CC(O)COc1ccc(Nc2ncc([N+](=O)[O-])c(Nc3ccccc3O)n2)cc1.O=C(O)C(F)(F)F (centres unmarked) [TCMDC-141399] | > 20000 nM | 4900 nM | > 20000 | > 20000 nM | > 20000 | > 20000 | 2850 nM | 100 | 6.118 | 26.9 nM and 29 nM | – | – | – | –
Cl.NCC1(c2nc(-c3ccc(Cl)c(O)c3)c(-c3ccncc3)[nH]2)CCCCC1 [TCMDC-141154] | 1700 nM | > 20000 nM | > 20000 | > 20000 nM | > 20000 | > 20000 | 3310 nM | – | – | – | 98 | 6.128 | – | –
CN1CCN(c2ccc(Nc3ncc(C#N)c(Nc4ccccc4C(N)=O)n3)cc2)CC1.Cl [TCMDC-134116] | 1100 nM and 1000 nM | 490 nM and 450 nM | 170 | 280 nM and 610 nM | 2800 | 330 | 185 nM and 192 nM | – | – | 13.2 nM and 17.4 nM | – | – | 92 | 7.405
